# Experimental data taken from patent US9981959B2, “Thiazolyl and oxazolyl urea, thiourea, guanidine and cyanoguanidine compounds as TrkA kinase inhibitors” (Array BioPharma Inc., priority 2012, dated 2018).
# Target: TrkA (Homo sapiens, UniProt P04629)
# Test: TrkA LanthaScreen Eu Kinase Binding Assay
# Design: 6HIS tagged cytoplasmic domain from Invitrogen, Cat. No. PV3144; purchased Invitrogen PV3144
# Details: averaged IC50; TR-FRET binding, 60 min, 22° C.; read-out: TrkA enzyme IC50
# Protocol: TrkA binding activity was determined in a TrkA LanthaScreen™ Eu Kinase Binding Assay. 5 nM His-tagged recombinant human TrkA (6HIS tagged cytoplasmic domain from Invitrogen, Cat. No. PV3144) was incubated with 4 nM Alexa-Fluor® Tracer 236 (Invitrogen Cat. No. PV5592), 2 nM biotinylated anti-His (Invitrogen Cat. No. PV6090), and 2 nM europium-labeled Streptavidin (Invitrogen Cat. No. PV5899), in buffer (25 mM MOPS, pH 7.5, 5 mM MgCl2, 0.005% Triton X-100). Three fold serial dilutions of compounds of the invention in DMSO were added to a final percentage of 2% DMSO. After 60-minute incubation at 22° C., the reaction was measured using the EnVision mutlimode plate reader (PerkinElmer) via TR-FRET dual wavelength detection at […]. The percent of control was calculated using a ratiometric emission factor. The IC50 values were determined by fitting a four parameter model to the percent of control data.
# Table A provides averaged IC50 values for compounds of the invention when tested in the assay of Example A, where A represents an averaged IC50 value <100 nM; and B represents an averaged IC50 value from 100 to 1,000 nM.
# Chain of TrkA (P04629 440-796 limits assumed): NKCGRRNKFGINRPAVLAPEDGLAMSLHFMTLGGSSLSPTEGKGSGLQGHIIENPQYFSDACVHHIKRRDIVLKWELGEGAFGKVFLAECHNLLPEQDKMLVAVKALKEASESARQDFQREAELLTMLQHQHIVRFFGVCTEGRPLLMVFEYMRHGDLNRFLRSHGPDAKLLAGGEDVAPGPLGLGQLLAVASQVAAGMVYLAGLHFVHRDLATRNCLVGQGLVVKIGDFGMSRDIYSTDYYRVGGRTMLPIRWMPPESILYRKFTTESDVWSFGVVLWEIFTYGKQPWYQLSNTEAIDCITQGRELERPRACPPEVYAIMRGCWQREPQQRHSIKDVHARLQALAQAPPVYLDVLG
row,IC50 [nM],SMILES
1,100 to 1000,"Cc1c(C(N)=O)nn(-c2ccccc2)c1NC(=O)Nc1sc(C(F)(F)F)nc1-c1ccccc1 [Example 4, 4-methyl-1-phenyl-5-(3-(4-phenyl-2-(trifluoromethyl)thiazol-5-yl)ureido)-1H-pyrazole-3-carboxamide]"
2,< 100,"Cc1nc(-c2ccccc2)c(NC(=O)Nc2c(C)c(-c3cnn(C)c3)nn2-c2ccccc2)s1 [Example 1, 1-(1′,4-dimethyl-1-phenyl-1H,1′H-[3,4′-bipyrazol]-5-yl)-3-(2-methyl-4-phenylthiazol-5-yl)urea]"
3,100 to 1000,"Cc1nc(-c2ccccc2)c(NC(=O)Nc2c(C)c(-c3cnn(C)c3)nn2-c2ccccc2)o1 [Example 3, 1-(1′,4-dimethyl-1-phenyl-1H, 1′H-[3,4′-bipyrazol]-5-yl)-3-(2-methyl-4-phenyloxazol-5-yl)urea]"
4,< 100,"Cc1c(OCCO)nn(-c2ccccc2)c1NC(=O)Nc1sc(C(F)(F)F)nc1-c1ccccc1 [Example 5, 1-(3-(2-hydroxyethoxy)-4-methyl-1-phenyl-1H-pyrazol-5-yl)-3-(4-phenyl-2-(trifluoromethyl)thiazol-5-yl)urea]"
